According to US12678440B2, “Compositions and methods for treating misfolded protein ocular disorders” (CASE WESTERN RESERVE UNIVERSITY, priority 2020, dated 2026):

What was measured:
[1] = test system: Rho^P23H/+ mice; experiment: Retinal immunohistochemistry (IHC) after intravitreal injection; format: in vivo, mouse
Method: The C57BL/6J (Rho^+/+) mice and Rho^P23H/P23H mice were purchased from Jackson Laboratory (Stock No 017628) generated by Dr. Krzysztof Palczewski's lab. The Rho^P23H/P23H mice were crossed with wild-type C57BL/6J mice to produce P23H heterozygotes mice. Genotyping for all strains was conducted as guided using forward and reverse primers: 1) GGTAGCACTGTTGGGCATCT (SEQ ID NO: 5); and 2) GACCCCACAGAGACAAGCTC (SEQ ID NO: 6), respectively. The PCR products at 573 and 399 bp indicated the P23H knock-in mutant and WT allele of the RHO gene, respectively. Mice were bred and housed under standard 12-h light/12-h dark conditions in the University of Pittsburgh animal facility. All animal experiments were approved by the University of Pittsburgh Institutional Animal Care and Use Committee (IACUC) following the guide for the Animal Welfare Act and Regulations.
To determine the effect of compounds on retina in vivo, we administered compounds directly into the vitreous space. Briefly, mice were treated with 1% tropicamide eye drops (Akorn, Lake Forest, IL USA) to dilate the pupils and then they were anesthetized with an intraperitoneal injection of ketamine (Henry Schein, Dublin, OH USA) at 80 mg/kg body weight (bw) and xylazine (Bimeda, Le Sueur, MN USA) at 7 mg/kg bw. One drop of 0.5% tetracaine hydrochloride (TCI, Tokyo, Japan) was applied to mouse eyes as topical anesthetics before injection. Eyes were kept lubricated during the injections by a 0.3% hypromellose eye gel (Alcon, Fort Worth, TX USA). A heating pad was used for maintaining body temperature. Mice were positioned to expose the sclera of the eyes. A 30-gauge needle (Medline, Northfield, IL USA) was used to puncture a hole through sclera behind limbus at a 45° angle. A 33-gauge blunt-end needle (Hamilton, Reno, NV USA) was used to be inserted into the hole and a total of 0.5 μL of sterile PBS or MTX in PBS was slowly injected into the posterior chamber and the needle was kept in place for about 30 seconds before a slow removal of the needle. A small amount of Triantibiotic ointment (Medline, Northfield, IL USA) was applied on the injection site to prevent infection. A single IVI with 25 or 100 pmol of MTX was administered to one eye of each Rho^P23H/+ mice at postnatal day (PND) 15, and PBS was injected to the other eye as vehicle control. We also performed four weekly IVIs of MTX or PBS to the second group of Rho^P23H/+ mouse eyes at PND 15, 22, 29 and 36.
Eyes were enucleated by a pair of curved-tip forceps and fixed in the freshly prepared 4% paraformaldehyde for 2 h. Fixed eyes were dehydrated sequentially in 5, 10, 20 and 40% sucrose solutions in PBS each for 30 min at room temperature. Finally, eyes were incubated in a mixture of 40% sucrose in PBS and O.C.T. compound (FisherScientific, Houston, TX USA) at 1:1 volume ratio for overnight at 4° C. before they are embedded in the same mixed solution in an orientation-specific manner and frozen in liquid nitrogen-bathed isobutene. Twelve-micron retinal cross-sections were made by a microtome at −16° C. and those containing the optic nerve head were applied onto a SuperFrost glass slide (FisherScientific, Houston, TX USA). These slides were then used for IHC. After rehydration and permeabilization in PBST for 15 min, retinal sections were incubated in 5% goat serum for 30 min, and then they were incubated with PBS containing the mouse 1D4 anti-rhodopsin antibody (20 μg/mL) for 2 hours at room temperature in a humidified chamber. The retinal sections were washed with PBST for four times and incubated with Cy3 conjugated goat anti-mouse antibody (5 μg/mL) for 1 hour at room temperature. Hoechst 33342 (1:10000 dilution) was applied for 5 min to stain the nuclei. Sections were mounted with the ProlongGold mounting solution (ThermoFisher, Waltham, MA USA). Immunofluorescence images were then taken by a fluorescence microscope for low-magnification images and a confocal microscope for high-magnification images. […]

[2] = test system: chymotrypsin-like proteasome activity; experiment: Proteasome activity assay (Proteasome-Glo); format: cell-based; conditions: NIH3T3 (RHO^P23H/GFP) and NIH3T3 (RHO^WT/GFP) cells; 0.0195 to 10 μM, 24 h
Method: NIH3T3 (RHO^P23H/GFP), NIH3T3 (RHO^WT/GFP) and NIH3T3 cells were seeded in a white-wall clear-bottom 384-well plate at 2500 cells/well in 20 μL of complete mediu. After 3 h of incubation, five μL/well of complete medium containing MTX was added to cells to treat cells with MTX at final concentrations from 0.0195 to 10 μM for 24 h. The cells treated with a complete medium containing 0.1% DMSO were used as the 100% control, and those treated with 5 μM MG-132 for 8 h were used as the 0% control. For endpoint proteasome activity measurement, each well was added with 25 μL of Proteasome-Glo™ Reagent containing the Suc-LLVY-Glo™ substrate (Promega, G8660, Madison, WI USA). The 384-well plate was shaken for 2 min to mix the solutions followed by a 24-min incubation at room temperature. Luminescence of each well was detected by a SpectraMax 13× microplate reader (Molecular Devices). The chymotrypsin-like proteasome activity was normalized by the 100% and 0% controls, respectively.

[3] = Estimated initial vitreous concentration after IVI; conditions: mouse vitreous volume about 5.3 μL
[4] = test system: P23H rhodopsin; experiment: Immunoblot of rhodopsin, MTX plus BafA1 or MG-132, NIH3T3 (RHO^P23H/GFP) cells; format: cell-based; conditions: 10 μM MTX + 100 nM BafA1, 24 h
Method: Cells were seeded in 6-well plates at a density of 5×10^5 cells/well and cultured at 37° C. with 5% CO2 for 17 h. The medium was replaced with a fresh medium containing a corresponding concentration of compounds. After treatment for 24 h, cells collected and lysed in 150 μL PBS containing 0.1% SDS and complete protease inhibitor cocktail with 12 s of sonication on ice. Retina samples were lysed in 300 μL per retina of PBS containing 0.1% SDS and complete protease inhibitor cocktail under 24 s of sonication on ice. Protein concentrations were determined by measurements of OD280 nm using a Nanodrop spectrometer. To immunoblot rhodopsin, one hundred μg of total protein for NIH3T3 (RHO^P23H/GFP) cells, or twenty μg of total protein for NIH3T3 (RHO^WT/GFP) cells was loaded per well onto an SDS-PAGE gel. To detect other proteins, fifty μg of total protein was loaded per well. After separation by electrophoresis in 10% and 16% SDS-PAGE gels, proteins were transferred to a nitrocellulose membrane using a wet membrane electrotransfer cassette followed by blocking with 5% bovine serum albumin in PBS containing 0.05% Tween 20 for 1 h. The membranes were incubated with primary antibodies at 4° C. overnight following with appropriate secondary antibodies for 1 h at room temperature. […]

[5] = four IVIs of 25 pmol, PND 46, vs PBS, superior side, not inferior side
[6] = single IVI 25 pmol, PND 33, vs PBS, superior side, not inferior side

CN(Cc1cnc2nc(N)nc(N)c2n1)c1ccc(C(=O)N[C@@H](CCC(=O)O)C(=O)O)cc1 [CL-009, N-[4-[[(2,4-diamino-6-pteridinyl)methyl]methylamino]benzoyl]-L-glutamic acid]
retinal degeneration caused by MTX ([1]; 100 pmol IVI, Rho^P23H/+ mice): did not see obvious retinal degeneration | level of rhodopsin in the ONL (IHC) [1, 5]: lower | levels of rhodopsin in the OS (IHC) [1, 5]: significantly higher | nucleus number in the ONL [1, 5]: higher | rhodopsin in the OS (IHC) [1, 6]: significant increase | total rhodopsin level in retinae (IHC) [1, 6]: significant increase | ONL nucleus number ([1]; single IVI, PND 33, either side of the retina): No change | chymotrypsin-like proteasome activity [2]: did not affect | vitreous concentration ([3]; 25 pmol IVI): about 4.7 μM | initial vitreous concentration ([3]; 100 pmol IVI): 18.9 µM | MTX induced P23H rhodopsin clearance under BafA1 co-treatment (immunoblot) [4]: abolished
